# Measurements taken from patent publication US5298494A, “Monosaccharides having anti-proliferation and anti-inflammatory activity, compositions and uses thereof” (Greenwich Pharmaceuticals Incorporated, priority 1993, dated 1994).
# “Also recorded” adds a separate entry of the source.
# Experiments:
# [1] = test system: Interleukin 1 (IL-1) production by peritoneal macrophages; test: IL-1 Assay: production of interleukin-1 by peritoneal macrophages (thymocyte bioassay); format: cell-based, mouse (C57B1/6); parameters: inhibition: dose or concentration left out as unconfirmed
# Source text: Interleukin 1 (IL-1) is a potent immunomodulatory cytokine that has a broad range of pro-inflammatory activities. IL-1 is known to be produced by activated accessory cells such as macrophages. Accessory cell production of IL-1 results in the activation and proliferation of T and B lymphocytes. Therefore, by inhibiting macrophage activation and production of IL-1, the activation and proliferation of the cellular effectors of inflammation can be modulated. Compounds of the invention were screened for inhibitory activity in a classical IL-1 assay. Six to 8 week old male C57B1/6 mice were purchased from Harlan Sprague Dawley. Peritoneal macrophages were elicited by the administration to mice of a single intraperitoneal injection of 0.2 ml of complete Freund's adjuvant. After 48 hours, elicited macrophages were removed from the mice by lavage with the use of Hank's balanced salt solution. […] To the macrophage cultures were added various doses of the compounds of the invention and 10 ug/ml of the macrophage activator lipopolysaccharide (to stimulate IL-1 production). Control cultures consisted of macrophages, lipopolysaccharide and culture medium containing various doses of DMSO only. […] The amount of IL-1 produced in the individual wells was determined in a bioassay for IL-1. This involved the removal of thymuses from mice less than 8 weeks of age. Thymocytes were isolated by passing each thymus through a stainless steel mesh screen. […] After 18 hours cells were harvested and radioactive incorporation (as a measure of cell proliferation) was quantitated in a liquid scintillation counter. The students t test was used to determine the significance of the difference between experimental and control values.
# [2] = test system: LTB4 production by BUD-8 skin cell fibroblasts; test: LTB4 production by BUD-8 skin cell fibroblasts (radioimmunoassay); format: cell-based, human
# Experimental: (§1) The effect of the compound of the present invention on the proliferative capacity of human BUD-8 skin fibroblasts was measured with the use of a ^3 H-thymidine incorporation assay using culture conditions which were similar to those used for a Con-A blastogenesis assay, described previously. Cultured skin cells were detached from the surface of tissue culture flasks mechanically with a Teflon scraper. The cells were washed, resuspended in incubation medium and the viabilities were determined. These cells were then plated in triplicate at a density of 2×10^3 cells/0.1 ml/microtiter well for the proliferation assay and a density of 1×10^4 cells/0.1 ml/microtiter well for the assays to quantitate PGE2 and LTB4. To these cells was added incubation medium containing indomethacin to inhibit prostaglandin production, or nordihydroguaiaretic acid (NDGA) to inhibit leukotriene production (positive controls).
# (§2) After 18 hours of culture, samples of the BUD-8 skin cell supernatants were collected from one set of microtiter plates and frozen until assayed for PGE2 or for LTB4 content using the radioimmunoassays described below.
# Levels of LTB4 in aliquots of BUD-8 skin cell cultures supernatants were quantitated by radioimmunoassay (New England Nuclear). Briefly, into each polyproplyene tube were mixed 0.1 ml anti-LTB4, 0.1. ml ^3 H-LTB4 and 0.1 ml LTB4 standard or LTB4 containing sample. The BUD-8 skin cell culture supernatants were used directly in the radioimmunoassay. Tubes were refrigerated overnight. A charcoal solution (0.5 ml of 0.5% charcoal Norit A) was added and each tube was centrifuged. The radioactivity in the supernatant was then counted in a liquid scintillation counter.
# [3] = test system: PGE2 production by BUD-8 skin cell fibroblasts; test: PGE2 production by BUD-8 skin cell fibroblasts (radioimmunoassay); format: cell-based, human
# Experimental: as §1, §2
# A radioinmunoassay (New England Nuclear) was used to quantitate PGE2 levels in BUD-8 skin cell culture supernatants. Briefly, into each polypropylene tube were mixed 0.1 ml anti-PGE2, 0.1 ml ^125 1-PGE2 and 0.1 ml PGE2 standard or PGE2 containing sample. The BUD-8 skin culture supernatants were diluted 1:2 prior to addition to the radioimmunoassay. Tubes were refrigerated overnight. A polyethylene glycol solution (16%, 6,000 m.w.) was then added to precipitate immune complexes and the radioactivity in the precipitate was counted in a gamma counter.
# BUD-8 skin cells = test: Morphological examination of BUD-8 cultures for compound-induced toxicity; format: cell-based, human
# Experimental: After 3 days of culture, 1 uCi ^3 H-thymidine was added in a 50 ul volume to each culture well of the microtiter plates. Eighteen hours later, each of the BUD-8 cultures was examined morphologically for evidence of compound-induced toxicity such as cell rounding or granularity. The thymidine-pulsed cells were then precipitated and the amount of ^3 H-thymidine incorporated was counted in a liquid scintillation counter.
compound,measurement,setting,value
CCCCCCCOCCCO[C@@H]1[C@H]2OC(C)(C)O[C@H]2O[C@@H]1[C@H](O)CO [IIg],^3 H-Thymidine uptake by thymocytes,[1]; 0.001 ug/ml,"8,823 ± 771 cpm"
same,^3 H-Thymidine uptake by thymocytes,[1]; 0.01 ug/ml,"7,873 ± 379 cpm"
same,^3 H-Thymidine uptake by thymocytes,[1]; 0.1 ug/ml,"8,790 ± 533 cpm"
same,^3 H-Thymidine uptake by thymocytes,[1]; 1 ug/ml,"7,307 ± 680 cpm"
same,^3 H-Thymidine uptake by thymocytes,[1]; 2.5 ug/ml,"7,229 ± 471 cpm"
same,^3 H-Thymidine uptake by thymocytes,[1]; 10 ug/ml,"4,854 ± 471 cpm"
same,^3 H-Thymidine uptake by thymocytes,[1]; 25 ug/ml,"3,265 ± 141 cpm"
same,^3 H-Thymidine uptake by thymocytes,[1]; 100 ug/ml,934 ± 43 cpm
same,inhibition at 0.001 µg/mL,"[1]; Mus musculus, Peritoneal macrophage, 0.001 ug/ml, read-out: % effect on IL-1 production (thymidine uptake by thymocytes)",-8%
same,inhibition at 0.01 µg/mL,"[1]; Mus musculus, Peritoneal macrophage, 0.01 ug/ml, read-out: % effect on IL-1 production (thymidine uptake by thymocytes)",4%
same,inhibition at 0.1 µg/mL,"[1]; Mus musculus, Peritoneal macrophage, 0.1 ug/ml, read-out: % effect on IL-1 production (thymidine uptake by thymocytes)",-14%
same,inhibition at 2.5 µg/mL,"[1]; Mus musculus, Peritoneal macrophage, 2.5 ug/ml, read-out: % effect on IL-1 production (thymidine uptake by thymocytes)",13%
same,inhibition at 10 µg/mL,"[1]; Mus musculus, Peritoneal macrophage, 10 ug/ml, read-out: % effect on IL-1 production (thymidine uptake by thymocytes)",37%
same,inhibition at 25 µg/mL,"[1]; Mus musculus, Peritoneal macrophage, 25 ug/ml, read-out: % effect on IL-1 production (thymidine uptake by thymocytes)",57%
same,inhibition at 100 µg/mL,"[1]; Mus musculus, Peritoneal macrophage, 100 ug/ml, read-out: % effect on IL-1 production (thymidine uptake by thymocytes)",80%
same,inhibition,"[1]; Mus musculus, Peritoneal macrophage, read-out: % effect on IL-1 production (thymidine uptake by thymocytes)",6%
same,concentrations with significantly decreased LTB4 levels,[2],1 to 100 µg/mL
same,LTB4 in supernatant (Table XIII),[2]; 1 ug/ml,32.2 ± 1.9 pg LTB4 /1000 ul supernatant
same,calculated LTB4 produced/10^5 BUD-8 cells,[2]; 1 ug/ml,619 pg per 10^5 cells
same,LTB4 in supernatant (Table XIII),[2]; 10 ug/ml,28.8 ± 1.4 pg LTB4 /1000 ul supernatant
same,calculated LTB4 produced/10^5 BUD-8 cells,[2]; 10 ug/ml,550 pg per 10^5 cells
same,LTB4 in supernatant (Table XIII),[2]; 25 ug/ml,23.7 ± 0.5 pg LTB4 /1000 ul supernatant
same,calculated LTB4 produced/10^5 BUD-8 cells,[2]; 25 ug/ml,447 pg per 10^5 cells
same,LTB4 in supernatant (Table XIII),[2]; 100 ug/ml,27.3 ± 2.6 pg LTB4 /1000 ul supernatant
same,calculated LTB4 produced/10^5 BUD-8 cells,[2]; 100 ug/ml,520 pg per 10^5 cells
same,LTB4 in supernatant (Table XIII),[2]; 300 ug/ml,24.5 ± 2.8 pg LTB4 /1000 ul supernatant
same,LTB4 in supernatant (Table XIII),[2]; 750 ug/ml,19.3 ± 1.9 pg LTB4 /1000 ul supernatant
same,inhibition at 1 µg/mL,"[2]; Homo sapiens, Fibroblast, 18 h, 1 ug/ml, read-out: % Effect on LTB4 production",17%
same,inhibition at 10 µg/mL,"[2]; Homo sapiens, Fibroblast, 18 h, 10 ug/ml, read-out: % Effect on LTB4 production",26%
same,inhibition at 25 µg/mL,"[2]; Homo sapiens, Fibroblast, 18 h, 25 ug/ml, read-out: % Effect on LTB4 production",39%
same,inhibition at 100 µg/mL,"[2]; Homo sapiens, Fibroblast, 18 h, 100 ug/ml, read-out: % Effect on LTB4 production",30%
same,inhibition at 300 µg/mL,"[2]; Homo sapiens, Fibroblast, 18 h, 300 ug/ml, read-out: % Effect on LTB4 production",37%
same,inhibition at 750 µg/mL,"[2]; Homo sapiens, Fibroblast, 18 h, 750 ug/ml, read-out: % Effect on LTB4 production",50%
same,PGE2 in supernatant,[3]; 1 ug/ml,5.2 ± 0.9 pg PGE2 /50 ul supernatant
same,calculated PGE2 produced/10^5 BUD-8 cells,[3]; 1 ug/ml,157 pg per 10^5 cells
same,PGE2 in supernatant,[3]; 10 ug/ml,5.6 ± 0.4 pg PGE2 /50 ul supernatant
same,calculated PGE2 produced/10^5 BUD-8 cells,[3]; 10 ug/ml,173 pg per 10^5 cells
same,PGE2 in supernatant,[3]; 25 ug/ml,4.1 ± 0.3 pg PGE2 /50 ul supernatant
same,calculated PGE2 produced/10^5 BUD-8 cells,[3]; 25 ug/ml,111 pg per 10^5 cells
same,PGE2 in supernatant,[3]; 100 ug/ml,11.0 ± 1.4 pg PGE2 /50 ul supernatant
same,calculated PGE2 produced/10^5 BUD-8 cells,[3]; 100 ug/ml,388 pg per 10^5 cells
same,PGE2 in supernatant,[3]; 300 ug/ml,19.6 ± 1.6 pg PGE2 /50 ul supernatant
same,calculated PGE2 produced/10^5 BUD-8 cells,[3]; 300 ug/ml,731 pg per 10^5 cells
same,PGE2 in supernatant,[3]; 750 ug/ml,7.3 ± 0.2 pg PGE2 /50 ul supernatant
same,calculated PGE2 produced/10^5 BUD-8 cells,[3]; 750 ug/ml,241 pg per 10^5 cells
same,inhibition at 1 µg/mL,"[3]; Homo sapiens, Fibroblast, 18 h, 1 ug/ml, read-out: % Effect on PGE2 production",45%
same,inhibition at 10 µg/mL,"[3]; Homo sapiens, Fibroblast, 18 h, 10 ug/ml, read-out: % Effect on PGE2 production",40%
same,inhibition at 25 µg/mL,"[3]; Homo sapiens, Fibroblast, 18 h, 25 ug/ml, read-out: % Effect on PGE2 production",57%
same,inhibition at 100 µg/mL,"[3]; Homo sapiens, Fibroblast, 18 h, 100 ug/ml, read-out: % Effect on PGE2 production",-17%
same,inhibition at 300 µg/mL,"[3]; Homo sapiens, Fibroblast, 18 h, 300 ug/ml, read-out: % Effect on PGE2 production",-108%
same,inhibition at 750 µg/mL,"[3]; Homo sapiens, Fibroblast, 18 h, 750 ug/ml, read-out: % Effect on PGE2 production",22%
same,"cell toxicity in BUD-8 cultures, in words",BUD-8 skin cells,Evidence of cell toxicity was observed at the two highest concentrations of compound tested; also recorded: Cell toxicity was again observed in cultures which included 300 and 750 ug/ml of the compound; also recorded: Compound induced cell toxicity was observed only at the highest dose level tested
